Test results from ChEMBL document CHEMBL1201862, “PubChem BioAssay data set” (2004).
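Protocol summary: plate cells (96-well), add compound at 5 concentrations, incubate 48 h, interpolate endpoints linearly. GI50: concentration for 50% inhibition of growth.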 Calls of active or inactive are those of the source. Rule as the data show it: active = GI50 up to about 1.1 µM and inactive = higher.

How the values were obtained:
Experiment in all cases: inhibition of tumour cell growth, NCI panel, 48 h
KM12 = tested on: KM12
K562 = tested on: K562
786-0 = tested on: 786-0
CAKI-1 = tested on: CAKI-1
NCI-H23 = tested on: NCI-H23
ACHN = tested on: ACHN
SK-MEL-2 = tested on: SK-MEL-2
MOLT-4 = tested on: MOLT-4
NCI-H460 = tested on: NCI-H460
MDA-MB-435 = tested on: MDA-MB-435
NCI-H226 = tested on: NCI-H226
SNB-75 = tested on: SNB-75
SF-268 = tested on: SF-268
EKVX = tested on: EKVX
HL-60 = tested on: HL-60
SN12C = tested on: SN12C
MDA-MB-231 = tested on: MDA-MB-231
UO-31 = tested on: UO-31
HCC 2998 = tested on: HCC 2998

Measured: GI50

CCOC(=O)/C=C(/C(=O)OCC)n1cc(Cl)c(=O)n(CC(=O)OCC)c1=O
inactive: KM12 > 25 µM | K562 2.1 µM | CAKI-1 3.94 µM | NCI-H23 5.74 µM | ACHN 3.4 µM | SK-MEL-2 4.84 µM | MOLT-4 1.15 µM | NCI-H460 9.02 µM | MDA-MB-435 4.95 µM | NCI-H226 > 25 µM | SNB-75 5.13 µM | SF-268 7.05 µM | EKVX 5.27 µM | HL-60 3.85 µM | SN12C 5.64 µM | MDA-MB-231 5.71 µM
active: 786-0 0.828 µM

CC1=C(C(=O)OCCO[N+](=O)[O-])C(c2cccc([N+](=O)[O-])c2)C(C(=O)OC(C)C)=C(C)N1 (configuration not stated)
inactive: KM12 11 µM | K562 18.2 µM | 786-0 13.3 µM | CAKI-1 17.6 µM | NCI-H23 17.6 µM | ACHN 14.2 µM | SK-MEL-2 13 µM | MOLT-4 3.23 µM | NCI-H460 13.8 µM | UO-31 12.6 µM | MDA-MB-435 15.2 µM | NCI-H226 8.95 µM | SF-268 13.1 µM | EKVX 16.8 µM | HCC 2998 15.7 µM | HL-60 > 100 µM | SN12C 17.4 µM | MDA-MB-231 13.3 µM

Nc1nnc2c(-c3ccccc3)n[nH]c2n1
inactive: KM12 23.2 µM | K562 39.9 µM | 786-0 62.4 µM | CAKI-1 17 µM | NCI-H23 68.7 µM | ACHN 30 µM | SK-MEL-2 90.2 µM | MOLT-4 21.7 µM | NCI-H460 26.3 µM | UO-31 28.2 µM | NCI-H226 46 µM | SF-268 17.1 µM | EKVX 5.9 µM | HCC 2998 93.5 µM | HL-60 9.4 µM | SN12C 63 µM

CC(/C=C/c1ccccc1)=N\NC(N)=S
inactive: KM12 28.3 µM | 786-0 34 µM | CAKI-1 35.7 µM | NCI-H23 74 µM | ACHN 38 µM | MOLT-4 24.4 µM | NCI-H460 61.2 µM | UO-31 32.1 µM | MDA-MB-435 28.1 µM | NCI-H226 80 µM | SF-268 61.7 µM | EKVX 17.7 µM | HCC 2998 21.6 µM | HL-60 15.1 µM | SN12C 42.1 µM | MDA-MB-231 34.6 µM
